The values that follow come from patent US20110183946A1, “Complexes Comprising alpha2-Adrenergic Receptor Agonists and Methods of Providing Neuroprotection or Treating or Inhibiting Progression of Glaucoma” (priority 2007, published 2011).

A word on the solubility: it is the dissolved amount per volume that the medium holds.

Converted amounts (≈) assume the structure as drawn. Read-outs that look alike come from different tables or passages of the source.

A short description of data set [1]: Solubility of various brimonidine complexes in water at the resulting pH. Format: physicochemical. As to conditions: for pH: resulting pH of the aqueous solubility sample. Here is the method:
In this experiment, various complexes comprising Brimonidine and counterions of one of the following acids were prepared: pamoic acid, capric acid, sebacic acid, hippuric acid, naproxen, 1-hydroxy-2-naphthoic acid, palmitic acid, and stearic acid. Variations of the procedure described in the following disclosure may be made within the skill of a person of ordinary skill in the art without departing from the scope of the present invention. Brimonidine free base in a preselected solvent was heated to about 60-70° C. The organic acid in another portion of the solvent was added into the heated mixture or was included in the original mixture before heating. The heating of the combined mixture was continued for an additional period, which was not critical. In certain embodiments, an antisolvent was added to the combined mixture, preferably at a lower temperature, to effect a precipitation of the complex of brimonidine and the counterion. It may be advantageous to remove a portion of the solvent and antisolvent to assist the precipitation. In certain other embodiments, the heated combined mixture was cooled down to a lower temperature, such as room temperature (or below) to effect the precipitation of the complex of brimonidine and the counterion. The precipitate was then filtered and dried to yield the final complex.

Data set [2] is described as follows: physchem. Here is the method:
Brimonidine and pamoic acid, at a molar ratio of 1:1, were mixed and dispersed in N-methylpyrrolidone (“NMP”). The solution of brimonidine and pamoic acid in NMP was heated while stirring to dissolve brimonidine (the final temperature, typically less than 70° C., was chosen so as not to lose significant amount of solvent). […] The precipitation was allow to proceed; for example, for several hours or overnight. […] Other solvents, known to people skilled in the art, may be used for a compound that provides the counterion to the α2-adrenergic agonist, as appropriate.

The conditions of data set [3]: see US Patent Application Publication 2005/0244463 A1; cited from earlier work.

For the molecule `Brc1c(NC2=NCCN2)ccc2nccnc12.O=C(O)c1ccc2ccccc2c1O` [1-hydroxy-2-naphtoate], the pH in data set [1] worked out at 6.8.

In data set [2] (water, thermodynamic from solid), `Brc1c(NC2=NCCN2)ccc2nccnc12` [brimonidine free base, 5-bromo-N-(2-imidazolin-2-yl)-6-quinoxalinamine] returned a solubility at 11 days of 215 µg/mL (≈ 736 µM). Also, the solubility in data set [1] (in water at the resulting pH (pH in column 1 of the same row)) lay in the range of 48 to 200 µg/mL (≈ 164 to 685 µM). In addition, in data set [1], the pH was 8.1-8.9.

As for `Brc1c(NC2=NCCN2)ccc2nccnc12.O=C(O)c1cc2ccccc2c(Cc2c(O)c(C(=O)O)cc3ccccc23)c1O` [brimonidine pamoate], the Solubility in water in data set [2] amounted to 207 µg/mL. Also, the pH in data set [1] is on record as 7.2-7.5.

Take brimonidine tartrate: the Solubility in water in data set [2] (water, after 11 days on a twist shaker) is 41588 µg/mL; in data set [3], “about 34 mg/ml”.

Consider naphthoate, for which the pH in data set [1] is on record as 5.3-5.4.
